In paper PMC8333425, “Discovery of a dual Ras and ARF6 inhibitor from a GPCR endocytosis screen” (Nature Communications, 2021):
Values joined by “and” are separate entries in the source; they are usually repeats but may differ in a detail not shown here. Equal entries are not always repeated.

Biological target: T1, Gαq (Homo sapiens, UniProt P50148)
T1 construct: expressed in transfected cells; host or cells: HEK293SL
Assay: Gαq BRET sensor, AT1R-mediated
Assay type: cell-based
Protocol: HEK293SL cells were seeded at a density of 7.5 × 10^5 cells per 100-mm dish and 24 h later, transiently transfected as such. For receptor internalization experiments, cells were transfected with 0.12 μg AT1R-RlucII, B2R-RlucII, or β2AR-RlucII and 0.48 μg of either rGFP-CAAX (to assess removal from the PM) or rGFP-FYVE (to assess accumulation in the endosomes). For β-arrestin recruitment assays, cells were transfected with 0.48 μg of receptor-YFP along with 0.12 μg of β-arrestin-RlucII. For β-arrestin/AP-2 binding experiments, cells were transfected with 1 μg Flag-AT1R, 1 μg β2-Adaptin-YFP, and 0.12 μg β-arrestin2-RlucII. For G protein activation, cells were transfected with 3 μg of sp-Flag-AT1R along with either 4.5 μg of the Gαq-polycistronic BRET sensor or 0.24 μg of the Gαi3-RlucII and 0.6 μg of GFP10-Gγ2 and Gβ1 sensors or 0.12 μg PKN-RBD-RlucII and 0.48 μg of rGFP-CAAX. For PKC activation, cells were transfected with 3 μg of sp-Flag-AT1R and 0.18 μg of the PKC sensor. For GTPase activation experiments, cells were transfected with 1 μg Flag-AT1R, 0.48 μg of rGFP-CAAX, and either 0.12 μg of GGA3-PBD-RlucII, PAK-CRIB-RlucII or Raf-RBD-RlucII. For biosensor validation experiments, cells were additionally transfected with 500 ng Flag-K-Ras-WT, Flag-K-Ras-G12V, Flag-K-Ras-SOS-CAAX, HA-ARF6-WT, HA-ARF6-T27N, Myc-Rac1-WT, Myc-Rac1-Q61L or Myc-Rac1-T17N. For PI3K/Akt activation experiments, cells were transfected with 0.48 μg of rGFP-CAAX and 0.12 μg of Akt (PH)-RlucII. After 18 h of transfection, the media was replaced and cells were divided for subsequent experiments. Cells were detached and seeded onto poly-L-ornithine-coated 96-well flat white bottom plates (BrandTech Scientific) at a density of 2.5 × 10^4 cells per well in media. […] For kinetics of β-arrestin recruitment or β-arrestin binding to receptor and AP-2 experiments, cells were serum starved for 30 min, pretreated with 21 (50 µM) or Barbadin (100 µM) for 30 min, stimulated with 100 nM AngII or 1 µM BK and BRET signals were monitored at indicated times using a Victor X Light plate reader (PerkinElmer). […] The BRET ratio was determined by calculating the ratio of the light emitted by YFP over the light emitted by the RlucII. […] For the kinetics of GTPase and PI3K/Akt activation, cells were serum starved, pretreated with 21 (50 µM) or Wortmannin (200 nM) for 30 min, stimulated with ligand (100 nM AngII or 100 ng/ml EGF) and BRET signals were monitored at indicated times. […] BRET signals were monitored using a Synergy2 (BioTek) microplate reader and coelenterazine 400a (final concentrations of 5 µM) added 3–5 min prior to BRET measurements. […] The BRET ratio was determined by calculating the ratio of the light emitted by rGFP/GFP10 over the light emitted by the RlucII.

T1 sequence (P50148 whole entry): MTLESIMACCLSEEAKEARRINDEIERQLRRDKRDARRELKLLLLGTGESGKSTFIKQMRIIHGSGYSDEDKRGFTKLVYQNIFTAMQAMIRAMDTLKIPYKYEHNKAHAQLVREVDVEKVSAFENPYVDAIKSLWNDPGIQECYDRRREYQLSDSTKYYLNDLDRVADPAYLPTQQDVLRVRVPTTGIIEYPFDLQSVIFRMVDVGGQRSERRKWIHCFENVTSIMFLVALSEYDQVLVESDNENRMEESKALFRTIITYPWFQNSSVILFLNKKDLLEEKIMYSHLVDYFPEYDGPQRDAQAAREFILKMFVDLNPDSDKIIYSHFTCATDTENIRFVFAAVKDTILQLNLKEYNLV
T1 sequence (P62873 whole entry partner): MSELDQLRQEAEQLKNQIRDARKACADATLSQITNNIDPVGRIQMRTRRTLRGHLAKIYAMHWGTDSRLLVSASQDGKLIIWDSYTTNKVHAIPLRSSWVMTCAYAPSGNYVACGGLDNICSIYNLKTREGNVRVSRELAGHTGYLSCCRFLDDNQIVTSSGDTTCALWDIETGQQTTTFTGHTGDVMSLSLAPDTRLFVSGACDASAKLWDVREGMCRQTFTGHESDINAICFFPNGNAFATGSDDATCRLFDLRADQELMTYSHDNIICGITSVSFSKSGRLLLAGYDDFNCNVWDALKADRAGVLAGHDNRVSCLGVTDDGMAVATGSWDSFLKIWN
T1 sequence (P63211 2-71 partner limits assumed): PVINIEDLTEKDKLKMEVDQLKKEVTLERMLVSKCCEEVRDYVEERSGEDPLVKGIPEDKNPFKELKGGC

Structure (SMILES): CC(C)C(=O)N1CCN(c2ccc(NC(=O)c3cc4ccccc4o3)cc2Cl)CC1 [Compound 21]
- Mean Diff. DMSO vs. compound, Gq (Dunnett's multiple comparisons test): 0.009667
- Gαq engagement by AT1R (BRET sensor) (50 μM): lack of inhibitory effects
- Gq BRET sensor signal (S_Fig.4b), single experiments (listed as Comp 21): 0.1945 and 0.171 and 0.2095
